The source of these data is paper PMC7043877, “Synthesis and evaluation of a prodrug of 5-aminosalicylic acid for the treatment of ulcerative colitis” (Iranian Journal of Basic Medical Sciences, 2019).

The structures appear in SMILES notation.

The nature of data set [1]: Transport study across Caco-2 monolayers (Papp). In kind it is in vitro ADME, human. The following applies: human, Caco-2. On the procedure:
(§1) Caco-2 cells were grown in DEME medium containing 10% FBS, 100 unit/ml peniciline, 100 µg/ml streptomycine, 2 mM glutamine, 1% sodium pyruvate and 1% non-essential amino acids at 37 °C in a humidified atmosphere of 95% air and 5% CO2. Cells were seeded on polycarbonate membranes (Transwell, diameter 24 mm, pore size 0.4 μm, Corning Costar, NY, USA) at 1×10^5 cells/well in a 6-well plate ([16]). Propranolol was used as a positive control.
(§2) Eight days later, Caco-2 cells reached 100% confluence and then were cultured for 18 days more. The culture medium was discarded, and then the apical (AP) and basal (BL) chambers were washed for 3 times with PBS. The culture medium was then replaced with 1 ml of propranolol or 5-ASA-ALA solution ([…]) in the AP chamber. In the BL chamber, 2 ml of PBS was added instead of the culture medium. The plate was incubated at 37 °C in an atmosphere of 95% air and 5% CO2 ([17]). After 0, 2, 4, 6, and 8 hr of incubation, the concentration of propranolol and 5-ASA-ALA in the BL chamber was measured by HPLC method, and the apparent permeability coefficient (Papp) of drugs was calculated as follows: […]
(§3) where dQ/dt (μmol/s) is the transport rate, C0 (μmol/cm^3) is the initial concentration in the donor chamber, and A (cm^2) is the surface area of insert filter membrane. Experiments were performed in triplicate.
A general note: Caco-2 cells form a polarised layer with tight junctions and transporters.

Data set [2] relates to Caco-2 cells. The following applies: Caco-2 cell monolayer, known value that justifies the positive control; no reference given; cited from earlier work.
Data set [3] has as its system TNBS-induced colitis. In words: TNBS-induced colitis: disease activity index (DAI). In kind it is in vivo, mice. The following applies: compared with the positive control. How it is done:
(§4) Colitis induction was performed based on the previous study ([20]). After a 12 hr of fast, mice were anesthetized with pentobarbital sodium (40 mg/kg of body weight). TNBS solution (0.1 ml dissolved in 50% ethanol, 2.5%) was injected into the colon of mice (3.5-4 cm from the anus), and then mice were kept head downward for 30 sec to prevent drug leakage. Twenty-four hr after the injection of TNBS, mice were administrated once daily for five continuous days with different drugs. Briefly, mice in treatment groups were administrated with a given dose of drugs by gavage (0.1 ml, equivalent to 100 mg/kg of 5-ASA) ([21]). Besides, mice in the control group and the positive group received a same volume of normal saline, and a physical mixture of 5-ASA and alanine, respectively. Forty-eight mice were randomly divided into four groups (n=12): 1) control (intragastric-gavage (ig), normal saline, no colitis induced), 2) TNBS (ig, normal saline), 3) positive (ig, 100 mg/kg 5-ASA+56 mg/kg alanine, dissolved in normal saline), 4) 5-ASA-ALA (ig, 156 mg/kg, dissolved in normal saline).
The disease activity index (DAI) of mice was scored and recorded daily from day 1 according to the scoring criteria (Table 1). […] The degree of fecal occult blood was evaluated by the ο-tolidine method ([22]), and scored based on the criteria reported by Kohn and kelly ([23]).

Data set [4] in a line: Pharmacokinetic study in rats after oral administration. In kind it is in vivo, rat. On the procedure: Twelve male Sprague-Dawley rats were randomly divided in two groups (n=6), the 5-ASA-ALA group and 5-ASA group. Rats were orally administered with a certain amount of 5-ASA-ALA (equivalent to 50 mg/kg of 5-ASA) and 5-ASA. At 0.25, 0.5, 1, 2, 4, 6 and 8 hr, blood samples were collected from the jugular vein and then centrifuged at 13000 g, 4 °C for 5 min to separate plasma. The plasma sample (0.1 ml) was mixed with methanol (0.4 ml), vortexed for 5 min and then centrifuged again. Finally, the supernatant was obtained, dried under nitrogen, dissolved in methanol and used for HPLC detection.

For data set [5], the system named is Caco-2 cells. In words: Transport study across Caco-2 monolayers (Papp). In kind it is in vitro ADME, human. The following applies: compared with propranolol. On the procedure:
as §1, §2, §3

Data set [6] concerns GSH, MDA, GSH-Px and SOD in colonic tissues. The data set is described as follows: TNBS-induced colitis: levels of GSH, MDA, GSH-Px and SOD in colonic tissues. The following applies: P<0.01. The data set is classed as in vivo, mice. On the procedure: as §4
Clean and dried colonic tissues were homogenized in ice-cold normal saline, the resulting homogenate (10%, w/v) was centrifuged at 4 °C, 13000 g for 15 min. The obtained supernatant was diluted with normal saline to 1% (w/v), and the protein levels in the supernatant were measured by a BCA protein assay kit. The levels of GSH and MDA, and the activity of GSH-Px and SOD in the colonic tissues were measured by assay kits according to the provider’s instructions.

In a further data set the test system is colonic microflora. The data set is described as follows: In vivo incubation in the colon of rats (with or without clindamycin pretreatment). The following applies: incubation in rat colon for 8 hr. On the procedure:
Rats were randomly divided into two groups (n=6), the clindamycin group and the control group. Clindamycin was used as an inhibitor of the colonic microflora. Rats were administered with a certain dose of clindamycin (25 mg/kg of body weight) and an equivalent volume of normal saline by gavage, twice daily for three days, respectively. After that, rats were anesthetized by diethyl ether, their abdomen was cut open, and then 5-ASA-ALA solution (2 mg, dissolved in 1 ml of PBS, pH=7.4) was injected into their colon, finally, their colon was tied at both ends and their abdomen was sutured immediately ([18], [19]). Eight hr later, animals were sacrificed, the colon contents of rats were collected and homogenized in PBS (pH=7.4, 40 ml). The homogenate was then centrifuged, and the supernatant was obtained and mixed with four times the volume of methanol, finally, samples were centrifuged, filtered and analyzed by HPLC. The percent of hydrolysis of 5-ASA-ALA was calculated as follows: percent of hydrolysis %=(1-Wf/Wt)×100 where Wf is the free amount of 5-ASA in the colon contents and Wi is the initial amount of 5-ASA-ALA that administered to rats.

Data set [7] can be described thus: In vitro incubation with colon contents of rats. In kind it is in vitro ADME, rat. On the procedure:
Four g of colon contents of rats (n=6) were collected and mixed with 5-ASA-ALA solution (0.1 g/ml) in PBS (pH=7.4, 40 ml), the mixture was incubated under nitrogen atmosphere at 37 °C. At the time point of 0, 1, 2, 3, 4, 5, 6, 7, 8, 9 and 10 hr, the mixture (0.5 ml) was sampled and replaced with an equivalent volume of PBS. Samples were then centrifuged and filtered, the concentration of 5-ASA was detected by HPLC method. The experiment was conducted at seven concentration levels of 5-ASA-ALA (27.5, 50.0, 72.5, 105.0, 150.0, 200.0 and 305.0 μg/ml). The hydrolysis curve of each concentration was drawn, the linear regression was made to obtain regression equations, and the slope of each curve was regarded as the hydrolysis rate of 5-ASA-ALA.

A short description of data set [8]: Stability study of 5-ASA-ALA in rat plasma and stomach, small intestine and colon contents (room temperature storage, freezing-thawing). The data set is classed as in vitro ADME. The following applies: all tissue samples at 0.4, 1.6 and 6.4 μg/ml, both storage conditions. How it is done: This study was tested at three concentration levels of 5-ASA-ALA to evaluate its in vitro stability in tissue samples and validate the HPLC method for 5-ASA-ALA analysis under different conditions. Briefly, five rats were anesthetized and sacrificed, and their abdomen was cut open through the middle. Their stomach contents, small intestine contents and colon contents were collected and mixed with hydrochloric acid buffer (pH=1.2) and phosphate buffered saline (PBS) (pH=6.8 and 7.4), respectively, and homogenized to 20% (w/v). Then 1.0 ml of 5-ASA-ALA solution (dissolved in corresponding buffers) was mixed with the same volume of rat plasma, freshly prepared stomach contents, small intestine contents and colon contents, respectively, with the final concentration of 0.4, 1.6 and 6.4 μg/ml. Samples were divided into two groups, stored at room temperature for 10 hr or went through the freezing-thawing cycles twice. At the end of the storage and the freezing-thawing cycle, samples were centrifuged at 13000 g for 10 min and mixed with methanol (0.4 ml), then the mixture was vortexed and centrifuged again. Finally, the supernatant was collected, concentrated with nitrogen, and dissolved in methanol for HPLC analysis ([15]). Each concentration level was tested five times and the RSD was calculated respectively.

Data set [9] has as its system MPO activity in colonic tissues. In words: TNBS-induced colitis: MPO activity in colonic tissues. In kind it is in vivo, mice. The following applies: P<0.01. How it is done: as §4
Colonic tissue samples were cleaned, dried and then suspended in HTAB solution (0.5%, pH=7.4), the final concentration of the tissue samples was 50 g/l. […] Finally, MPO activity in colonic tissues was detected by an assay kit according to the provider’s instructions.

Data set [10] has as its system TNBS-induced colitis. The data set is described as follows: TNBS-induced colitis: survival rate and body weight of mice. The data set is classed as in vivo. The following applies: ig equivalent to 100 mg/kg of 5-ASA, once daily 5 days. On the procedure: as §4
From day 0 of colitis induction, the body weight of each mouse and the death of each group were recorded daily. Finally, the degree of TNBS-induced colitis in mice of each group was evaluated based on the curves of weight changes and the final survival rate of mice for each group.

For data set [11], the system named is TNBS-induced colitis. The data set is described as follows: TNBS-induced colitis: colonic damage score (CDS) and colon index. The data set is classed as in vivo, mice. The following applies: vs positive control, P<0.05. How it is done:
Colitis induction was performed based on the previous study ([20]). After a 12 hr of fast, mice were anesthetized with pentobarbital sodium (40 mg/kg of body weight). TNBS solution (0.1 ml dissolved in 50% ethanol, 2.5%) was injected into the colon of mice (3.5-4 cm from the anus), and then mice were kept head downward for 30 sec to prevent drug leakage. Twenty-four hr after the injection of TNBS, mice were administrated once daily for five continuous days with different drugs. Briefly, mice in treatment groups were administrated with a given dose of drugs by gavage (0.1 ml, equivalent to 100 mg/kg of 5-ASA) ([21]). […]
All mice were sacrificed on the 5th day of the experiment, their colonic tissues were excised, cut longitudinally, washed carefully with normal saline, and observed with a magnifying glass. The colonic damage score (CDS) was evaluated according to following scoring criteria: 0, no ulcer and colitis; 1, local hyperemia without ulcer; 2, ulcers without local hyperemia; 3, only one ulcerative and inflammatory lesion; 4, more than one ulcerative and inflammatory lesions; 5, more than 2 cm of continuous ulcer areas ([24]).
The entire colon samples were dried with filter papers, the length and weight of the samples were measured and recorded, respectively, in order to calculate the colon index of mice as the following formula: […]

[12] abbreviates: vs TNBS group, five days of treatment.

What is called Papp is the rate of passage across a membrane or cell layer, normalised by area and donor concentration. For `CC(C)NCC(O)COc1cccc2ccccc12` (centres unmarked) [Propranolol, reference compound], in [1] (detected in this study, at 100 μmol/l), the Papp at 8 hr, 100 μmol/l worked out at 24.8 ×10⁻⁶ cm/s. Further, the Papp in the data set with Caco-2 cells [2] was 2.75e-05 cm/s.

For the compound `CC(NC(=O)c1cc(N)ccc1O)C(=O)O` (centres unmarked) [5-ASA-ALA, 5-Aminosalicylic acid-alanine], the DAI entry in the data set with TNBS-induced colitis [3] is “more effective than the positive control”. For the same compound, the plasma concentration entry in [4] (oral, equivalent to 50 mg/kg of 5-ASA, 0-8 hr) was “not detected”. Moreover, in the data set on Caco-2 cells [5], the “absorption in the Caco-2 monolayer” value is “significantly less than the propranolol”. Moreover, in [1] (apical to basal direction, at 200 μmol/l), the Papp at 8 hr, 200 μmol/l came to 2.63 ×10⁻⁶ cm/s. For the same compound, the Papp at 8 hr, 400 μmol/l in data set [1] (apical to basal direction, at 400 μmol/l) was found to be 1.73 ×10⁻⁶ cm/s. Further, in [6] (setting [12]), the “GSH level in colonic tissues” value is “significantly higher”, the “GSH-Px activity in colonic tissues” value is “higher activities”, the “MDA level in colonic tissues” value is recorded as “significantly lower” and the “SOD activity in colonic tissues” value is on record as “higher activities”. In addition, the “reducing the MDA level in the colon” value in data set [6] (vs positive control) is “significantly greater effect”. Further, the percent of hydrolysis in the data set with colonic microflora (clindamycin group (25 mg/kg twice daily, three days), P<0.01) is recorded as 5.26%. The percent of hydrolysis in the data set on colonic microflora (control group (normal saline)) came to 89.14%. Further, the “concentration of 5-ASA-ALA above which the hydrolysis rate did not increase anymore (zero-order)” value in [7] (colon contents of rats, Figure 3) was “above 200 µg/ml”. Further, the “5-ASA released from 5-ASA-ALA” value in data set [7] (colon contents, PBS pH 7.4, nitrogen, 37 °C, 0-10 hr) is “gradually released”. Also, the “RSDs in all tissue samples” value in data set [8] is on record as less than 4%. Also, the “MPO activity in colonic tissues” value in data set [9] (vs TNBS group) is reported as “significantly reduced”. In data set [9] (vs positive control), the “MPO activity in colonic tissues” value was “obviously more effective than the positive control”. For the same compound, the body weight entry in the data set on TNBS-induced colitis [10] (alleviated from the third day) is on record as “slight weight loss in the first two days”. Further, the survival rate entry in the data set with TNBS-induced colitis [10] (positive control vs 5-ASA-ALA group, n=12) is “no significant difference”. Further, the CDS entry with TNBS-induced colitis [11] was “significantly greater effect than the positive control”.

As usually defined, the Tmax is the time at which the peak concentration occurs. With `Nc1ccc(O)c(C(=O)O)c1` [5-ASA, 5-Aminosalicylic acid], the Tmax in data set [4] (male, Sprague-Dawley, rat, oral administration, 50 mg/kg of 5-ASA, plasma) amounted to 30 min.
